Experimental data taken from patent US20080176936A1, “Classes of Compounds that Interact with Integrins” (priority 2005, published 2008).

Key:
αVβ3 integrin = target: T1, αVβ3 integrin (Homo sapiens, UniProt P05106+P06756); test: ELISA: inhibition of binding of αVβ3 integrin (source WM-115 cell line) to coated extracellular matrix protein; conditions: WM-115 cell line as integrin source
T1 construct: the cell line WM-115 was used as a source of αVβ3 integrin; endogenous in cells; host or cells: WM-115 cell line
T1 sequence (P06756 31-889 limits assumed): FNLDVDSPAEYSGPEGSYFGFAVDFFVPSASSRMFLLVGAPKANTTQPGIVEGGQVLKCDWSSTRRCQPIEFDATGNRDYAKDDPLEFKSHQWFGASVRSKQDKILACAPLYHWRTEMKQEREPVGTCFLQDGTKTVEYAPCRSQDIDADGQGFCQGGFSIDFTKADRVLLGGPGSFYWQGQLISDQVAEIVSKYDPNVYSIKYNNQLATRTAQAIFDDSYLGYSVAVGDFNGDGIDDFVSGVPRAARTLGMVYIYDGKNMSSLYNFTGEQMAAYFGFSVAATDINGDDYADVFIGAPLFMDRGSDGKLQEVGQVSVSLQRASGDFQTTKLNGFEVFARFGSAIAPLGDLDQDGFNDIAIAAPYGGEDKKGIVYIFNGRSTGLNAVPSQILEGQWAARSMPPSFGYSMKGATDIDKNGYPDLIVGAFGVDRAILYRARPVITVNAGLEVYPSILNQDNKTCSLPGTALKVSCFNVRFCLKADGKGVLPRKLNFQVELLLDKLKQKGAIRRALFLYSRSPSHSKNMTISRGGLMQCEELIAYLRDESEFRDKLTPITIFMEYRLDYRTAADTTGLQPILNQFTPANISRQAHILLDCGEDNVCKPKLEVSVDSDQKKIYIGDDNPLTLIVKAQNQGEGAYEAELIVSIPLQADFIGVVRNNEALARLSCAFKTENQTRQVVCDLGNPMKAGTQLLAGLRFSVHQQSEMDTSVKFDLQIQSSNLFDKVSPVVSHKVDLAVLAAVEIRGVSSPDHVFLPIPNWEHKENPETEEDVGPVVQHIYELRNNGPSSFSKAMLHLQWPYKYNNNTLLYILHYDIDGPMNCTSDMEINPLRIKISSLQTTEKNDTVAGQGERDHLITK
T1 sequence (P06756 891-1048 partner limits assumed): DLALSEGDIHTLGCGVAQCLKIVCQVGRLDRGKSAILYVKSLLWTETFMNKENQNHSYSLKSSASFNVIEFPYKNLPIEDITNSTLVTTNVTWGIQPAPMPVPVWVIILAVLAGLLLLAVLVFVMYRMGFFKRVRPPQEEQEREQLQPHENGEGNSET
T1 sequence (P05106 27-788): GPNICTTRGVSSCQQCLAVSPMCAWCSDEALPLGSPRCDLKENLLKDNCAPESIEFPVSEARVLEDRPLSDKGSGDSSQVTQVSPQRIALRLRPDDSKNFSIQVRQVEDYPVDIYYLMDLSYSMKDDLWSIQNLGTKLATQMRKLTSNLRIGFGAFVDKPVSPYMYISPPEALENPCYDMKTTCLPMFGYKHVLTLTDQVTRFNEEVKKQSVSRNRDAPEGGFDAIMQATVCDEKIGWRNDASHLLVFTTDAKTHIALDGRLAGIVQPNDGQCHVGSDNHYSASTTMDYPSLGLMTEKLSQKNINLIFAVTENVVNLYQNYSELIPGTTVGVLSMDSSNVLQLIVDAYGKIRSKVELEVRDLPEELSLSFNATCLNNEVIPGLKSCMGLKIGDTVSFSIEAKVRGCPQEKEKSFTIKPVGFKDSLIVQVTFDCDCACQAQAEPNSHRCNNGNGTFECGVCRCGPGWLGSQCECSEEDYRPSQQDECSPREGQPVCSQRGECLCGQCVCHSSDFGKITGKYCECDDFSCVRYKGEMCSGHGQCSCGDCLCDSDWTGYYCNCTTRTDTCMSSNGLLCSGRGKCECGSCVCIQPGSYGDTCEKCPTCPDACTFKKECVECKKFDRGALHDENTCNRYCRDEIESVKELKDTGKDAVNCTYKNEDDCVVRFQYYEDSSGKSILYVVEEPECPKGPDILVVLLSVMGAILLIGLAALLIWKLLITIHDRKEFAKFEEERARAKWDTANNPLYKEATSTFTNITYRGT
Procedure, shortened: (§1)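 Wells were coated with fibrinogen or vitronectin (10 µg/well), and integrin binding was measured by ELISA. αIIbβ3 came from human platelet membranes and αVβ3 from WM-115 cells, each preincubated with compound. Bound integrin was detected with a rabbit anti-β3 antibody, an HRP secondary and a colorimetric readout.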

αllbβ3 integrin = target: T2, αllbβ3 integrin (Homo sapiens, UniProt P05106+P08514); test: ELISA: inhibition of binding of αllbβ3 integrin membrane preparation to coated extracellular matrix protein; conditions: human platelet membrane preparation
T2 construct: Human platelet membrane preparations were used as a source of αllbβ3 integrin; from tissue; host or cells: human platelets (membrane preparation)
T2 sequence (P08514 32-887 limits assumed): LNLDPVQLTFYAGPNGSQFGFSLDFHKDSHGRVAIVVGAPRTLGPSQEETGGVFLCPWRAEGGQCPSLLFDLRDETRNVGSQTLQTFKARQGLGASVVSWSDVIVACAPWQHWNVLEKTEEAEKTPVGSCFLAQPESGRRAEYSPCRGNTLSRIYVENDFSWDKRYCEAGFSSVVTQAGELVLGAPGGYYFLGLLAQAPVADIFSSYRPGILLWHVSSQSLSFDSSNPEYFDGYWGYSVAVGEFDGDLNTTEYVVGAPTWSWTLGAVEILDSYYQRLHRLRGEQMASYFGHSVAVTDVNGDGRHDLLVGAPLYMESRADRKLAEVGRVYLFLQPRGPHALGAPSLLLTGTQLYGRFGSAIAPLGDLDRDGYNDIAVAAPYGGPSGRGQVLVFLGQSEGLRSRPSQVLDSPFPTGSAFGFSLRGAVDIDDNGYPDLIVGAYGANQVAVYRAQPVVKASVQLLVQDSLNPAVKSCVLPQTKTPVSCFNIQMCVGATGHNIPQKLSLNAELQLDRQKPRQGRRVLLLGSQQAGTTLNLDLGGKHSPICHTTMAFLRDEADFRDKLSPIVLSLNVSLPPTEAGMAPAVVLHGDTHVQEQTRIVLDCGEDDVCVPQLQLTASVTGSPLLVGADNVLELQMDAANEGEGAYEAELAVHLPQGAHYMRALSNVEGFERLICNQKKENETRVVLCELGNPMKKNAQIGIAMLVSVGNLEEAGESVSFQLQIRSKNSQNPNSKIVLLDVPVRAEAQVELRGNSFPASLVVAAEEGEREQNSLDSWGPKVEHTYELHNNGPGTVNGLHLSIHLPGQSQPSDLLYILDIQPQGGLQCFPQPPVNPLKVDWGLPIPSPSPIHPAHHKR
T2 sequence (P08514 891-1039 partner limits assumed): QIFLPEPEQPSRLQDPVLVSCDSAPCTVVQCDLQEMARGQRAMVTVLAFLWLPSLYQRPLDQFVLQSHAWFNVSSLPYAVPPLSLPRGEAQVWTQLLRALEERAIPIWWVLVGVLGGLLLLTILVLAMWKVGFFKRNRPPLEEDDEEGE
T2 sequence (P05106 27-788): as the sequence (P05106 27-788) above
Procedure, shortened: as §1

## Nc1cccc(COC[C@H]2OC(O)[C@H](NC(=O)CCC(=O)O)[C@@H](OCc3ccc(Br)cc3)[C@@H]2O)c1 (single isomer, unassigned) [Compound 46]
αVβ3 integrin
  INHIBITION 250 uM RECEPTOR aVb3 SUBSTRATE FIBRINOGEN: +++ (81% to 100% inhibition at 250 micromolar)
αllbβ3 integrin
  INHIBITION @ 250 uM RECEPTOR allBb3 SUBSTRATE FIBRINOGEN: + (36% to 60% inhibition at 250 micromolar)
  INHIBITION 250 uM RECEPTOR allBb3 SUBSTRATE VITRONECTIN: +++ (81% to 100% inhibition at 250 micromolar)

## CCOC1O[C@H](COCc2ccc(C(=O)O)cc2)[C@@H](O)[C@H](OCc2ccc(Br)cc2)[C@H]1NC(=O)c1cccc(N)c1 (single isomer, unassigned) [Compound 40]
αVβ3 integrin
  INHIBITION 250 uM RECEPTOR aVb3 SUBSTRATE FIBRINOGEN: +++ (81% to 100% inhibition at 250 micromolar)
αllbβ3 integrin
  INHIBITION @ 250 uM RECEPTOR allBb3 SUBSTRATE FIBRINOGEN: +++ (81% to 100% inhibition at 250 micromolar)
  INHIBITION 250 uM RECEPTOR allBb3 SUBSTRATE VITRONECTIN: +++ (81% to 100% inhibition at 250 micromolar)

## COC1OC(COCc2ccc(Br)cc2)C(O)C(OCc2ccc(C(=O)O)cc2)C1NC(=O)CCNC(=N)N (single isomer, unassigned) [Compound 15]
αVβ3 integrin
  INHIBITION 250 uM RECEPTOR aVb3 SUBSTRATE FIBRINOGEN: ++ (61% to 80% inhibition at 250 micromolar)
αllbβ3 integrin
  INHIBITION @ 250 uM RECEPTOR allBb3 SUBSTRATE FIBRINOGEN: + (36% to 60% inhibition at 250 micromolar)
  INHIBITION 250 uM RECEPTOR allBb3 SUBSTRATE VITRONECTIN: +++ (81% to 100% inhibition at 250 micromolar)

## CCOC1O[C@H](COCC(=O)O)[C@@H](O)[C@H](OCc2ccccc2)[C@H]1NC(=O)c1cccc(N)c1 (single isomer, unassigned) [Compound 32]
αVβ3 integrin
  INHIBITION 250 uM RECEPTOR aVb3 SUBSTRATE FIBRINOGEN: − (0% to 35% inhibition at 250 micromolar)
αllbβ3 integrin
  INHIBITION @ 250 uM RECEPTOR allBb3 SUBSTRATE FIBRINOGEN: + (36% to 60% inhibition at 250 micromolar)
  INHIBITION 250 uM RECEPTOR allBb3 SUBSTRATE VITRONECTIN: +++ (81% to 100% inhibition at 250 micromolar)

## CCOC1OC(COCc2ccccc2)C(O)C(OCc2cccc(N)c2)C1NC(=O)c1ccc(C(=O)O)cc1 (single isomer, unassigned) [Compound 69]
αVβ3 integrin
  INHIBITION 250 uM RECEPTOR aVb3 SUBSTRATE FIBRINOGEN: +++ (81% to 100% inhibition at 250 micromolar)
αllbβ3 integrin
  INHIBITION @ 250 uM RECEPTOR allBb3 SUBSTRATE FIBRINOGEN: − (0% to 35% inhibition at 250 micromolar)
  INHIBITION 250 uM RECEPTOR allBb3 SUBSTRATE VITRONECTIN: +++ (81% to 100% inhibition at 250 micromolar)

## Nc1cccc(COC2C(O)C(COCc3ccc(Br)cc3)OC(O)C2NC(=O)CCC(=O)O)c1 (single isomer, unassigned) [Compound 26]
αVβ3 integrin
  INHIBITION 250 uM RECEPTOR aVb3 SUBSTRATE FIBRINOGEN: ++ (61% to 80% inhibition at 250 micromolar)
αllbβ3 integrin
  INHIBITION @ 250 uM RECEPTOR allBb3 SUBSTRATE FIBRINOGEN: + (36% to 60% inhibition at 250 micromolar)
  INHIBITION 250 uM RECEPTOR allBb3 SUBSTRATE VITRONECTIN: +++ (81% to 100% inhibition at 250 micromolar)

## Nc1cccc(COC2C(O)C(COCc3ccc(C(=O)O)cc3)OC(O)C2NC(=O)c2ccc(Cl)cc2)c1 (single isomer, unassigned) [Compound 81]
αVβ3 integrin
  INHIBITION 250 uM RECEPTOR aVb3 SUBSTRATE FIBRINOGEN: +++ (81% to 100% inhibition at 250 micromolar)
αllbβ3 integrin
  INHIBITION @ 250 uM RECEPTOR allBb3 SUBSTRATE FIBRINOGEN: + (36% to 60% inhibition at 250 micromolar)
  INHIBITION 250 uM RECEPTOR allBb3 SUBSTRATE VITRONECTIN: +++ (81% to 100% inhibition at 250 micromolar)

## COC1OC(COCc2ccc(C(=O)O)cc2)C(O)C(OCc2cccc(N)c2)C1NC(=O)c1ccc(Cl)cc1 (single isomer, unassigned) [Compound 30]
αVβ3 integrin
  INHIBITION 250 uM RECEPTOR aVb3 SUBSTRATE FIBRINOGEN: +++ (81% to 100% inhibition at 250 micromolar)
αllbβ3 integrin
  INHIBITION @ 250 uM RECEPTOR allBb3 SUBSTRATE FIBRINOGEN: ++ (61% to 80% inhibition at 250 micromolar)
  INHIBITION 250 uM RECEPTOR allBb3 SUBSTRATE VITRONECTIN: +++ (81% to 100% inhibition at 250 micromolar)

## CCOC1O[C@H](COCc2ccc(C(=O)O)cc2)[C@@H](O)[C@H](OCc2ccccc2)[C@H]1NC(=O)c1cccc(N)c1 (single isomer, unassigned) [Compound 35]
αVβ3 integrin
  INHIBITION 250 uM RECEPTOR aVb3 SUBSTRATE FIBRINOGEN: +++ (81% to 100% inhibition at 250 micromolar)
αllbβ3 integrin
  INHIBITION @ 250 uM RECEPTOR allBb3 SUBSTRATE FIBRINOGEN: + (36% to 60% inhibition at 250 micromolar)
  INHIBITION 250 uM RECEPTOR allBb3 SUBSTRATE VITRONECTIN: +++ (81% to 100% inhibition at 250 micromolar)

## Nc1cccc(COC2C(O)C(CO)OC(OCc3ccccc3)C2NC(=O)c2ccc(C(=O)O)cc2)c1 (single isomer, unassigned) [Compound 109]
αVβ3 integrin
  INHIBITION 250 uM RECEPTOR aVb3 SUBSTRATE FIBRINOGEN: − (0% to 35% inhibition at 250 micromolar)
αllbβ3 integrin
  INHIBITION @ 250 uM RECEPTOR allBb3 SUBSTRATE FIBRINOGEN: − (0% to 35% inhibition at 250 micromolar)
  INHIBITION 250 uM RECEPTOR allBb3 SUBSTRATE VITRONECTIN: +++ (81% to 100% inhibition at 250 micromolar)

## CCOC1O[C@H](COCc2cccc(N)c2)[C@@H](O)[C@H](OCc2ccccc2)[C@H]1NC(=O)c1ccc(C(=O)O)cc1 (single isomer, unassigned) [Compound 36]
αVβ3 integrin
  INHIBITION 250 uM RECEPTOR aVb3 SUBSTRATE FIBRINOGEN: +++ (81% to 100% inhibition at 250 micromolar)
αllbβ3 integrin
  INHIBITION @ 250 uM RECEPTOR allBb3 SUBSTRATE FIBRINOGEN: + (36% to 60% inhibition at 250 micromolar)
  INHIBITION 250 uM RECEPTOR allBb3 SUBSTRATE VITRONECTIN: +++ (81% to 100% inhibition at 250 micromolar)

## CCOC1O[C@H](COCc2ccccc2)[C@@H](O)[C@H](OCc2ccc(C(=O)O)cc2)[C@H]1NC(=O)CCNC(=N)N (single isomer, unassigned) [Compound 58]
αVβ3 integrin
  INHIBITION 250 uM RECEPTOR aVb3 SUBSTRATE FIBRINOGEN: +++ (81% to 100% inhibition at 250 micromolar)
αllbβ3 integrin
  INHIBITION @ 250 uM RECEPTOR allBb3 SUBSTRATE FIBRINOGEN: + (36% to 60% inhibition at 250 micromolar)
  INHIBITION 250 uM RECEPTOR allBb3 SUBSTRATE VITRONECTIN: +++ (81% to 100% inhibition at 250 micromolar)

## CCOC1OC(COCc2ccc(C(=O)O)cc2)C(O)C(OCc2cccc(N)c2)C1NC(=O)c1ccc(Cl)cc1 (single isomer, unassigned) [Compound 79]
αVβ3 integrin
  INHIBITION 250 uM RECEPTOR aVb3 SUBSTRATE FIBRINOGEN: +++ (81% to 100% inhibition at 250 micromolar)
αllbβ3 integrin
  INHIBITION @ 250 uM RECEPTOR allBb3 SUBSTRATE FIBRINOGEN: + (36% to 60% inhibition at 250 micromolar)
  INHIBITION 250 uM RECEPTOR allBb3 SUBSTRATE VITRONECTIN: +++ (81% to 100% inhibition at 250 micromolar)

## COCC1OC(OCc2ccccc2)C(NC(=O)c2ccc(C(=O)O)cc2)C(OCc2cccc(N)c2)C1O (single isomer, unassigned) [Compound 105]
αVβ3 integrin
  INHIBITION 250 uM RECEPTOR aVb3 SUBSTRATE FIBRINOGEN: − (0% to 35% inhibition at 250 micromolar)
αllbβ3 integrin
  INHIBITION @ 250 uM RECEPTOR allBb3 SUBSTRATE FIBRINOGEN: +++ (81% to 100% inhibition at 250 micromolar)
  INHIBITION 250 uM RECEPTOR allBb3 SUBSTRATE VITRONECTIN: ++ (61% to 80% inhibition at 250 micromolar)

## CCOC1O[C@H](COCc2cccc(N)c2)[C@@H](O)[C@H](OCc2ccc(C(=O)O)cc2)[C@H]1NC(=O)c1ccc(Cl)cc1 (stereo partly drawn) [Compound 65]
αVβ3 integrin
  INHIBITION 250 uM RECEPTOR aVb3 SUBSTRATE FIBRINOGEN: − (0% to 35% inhibition at 250 micromolar)
αllbβ3 integrin
  INHIBITION @ 250 uM RECEPTOR allBb3 SUBSTRATE FIBRINOGEN: − (0% to 35% inhibition at 250 micromolar)
  INHIBITION 250 uM RECEPTOR allBb3 SUBSTRATE VITRONECTIN: +++ (81% to 100% inhibition at 250 micromolar)

## COC1OC(COCC(=O)O)C(O)C(OCc2ccccc2)C1NC(=O)c1ccc(CNC(=N)N)cc1 (single isomer, unassigned) [Compound 129]
αVβ3 integrin
  INHIBITION 250 uM RECEPTOR aVb3 SUBSTRATE FIBRINOGEN: − (0% to 35% inhibition at 250 micromolar)
αllbβ3 integrin
  INHIBITION @ 250 uM RECEPTOR allBb3 SUBSTRATE FIBRINOGEN: − (0% to 35% inhibition at 250 micromolar)
  INHIBITION 250 uM RECEPTOR allBb3 SUBSTRATE VITRONECTIN: +++ (81% to 100% inhibition at 250 micromolar)
